Measurements: PubChem BioAssay AID192 (DTP/NCI, 2004)
Toxic doses and inconclusive results are not listed.

System: BDF1 mice, B16 melanoma ip, median survival T/C
Test: NCI In Vivo Anticancer Drug Screen. Data for tumor model B16 Melanoma (intraperitoneal) in B6D2F1 (BDF1) mice
Conditions: endpoint: median survival time, schedule: Q01DX009 (ip), higher = longer survival
Outline: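 Tumor-bearing mice received test compound or vehicle. Survival or tumor size was then measured in both groups. The treated-group figure was divided by the control-group figure.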

[1] = dose: 50.0 mg/kg/injection, vehicle: saline with Tween-80
[2] = dose: 100.0 mg/kg/injection, vehicle: saline with Tween-80
[3] = dose: 200.0 mg/kg/injection, vehicle: saline with Tween-80
[4] = dose: 400.0 mg/kg/injection, vehicle: saline with Tween-80
[5] = dose: 1.0 mg/kg/injection, vehicle: saline

## CCCCCCCC(=O)O[C@H]1[C@H]2[C@@H](CC1(C)C)C(=O)[C@]13O[C@H]1C(=O)[C@]1(CO1)[C@]23C
dose: 0.31 mg/kg/injection, vehicle: Klucel (hydroxypropylcellulose) (HPC)
  T/C: 98 % of control
dose: 0.63 mg/kg/injection, vehicle: Klucel (hydroxypropylcellulose) (HPC)
  T/C: 102 % of control
dose: 0.63 mg/kg/injection, vehicle: saline with Tween-80
  T/C: 92 % of control
dose: 1.25 mg/kg/injection, vehicle: Klucel (hydroxypropylcellulose) (HPC)
  T/C: 100 % of control
dose: 1.25 mg/kg/injection, vehicle: saline with Tween-80
  T/C: 89 % of control
dose: 2.5 mg/kg/injection, vehicle: Klucel (hydroxypropylcellulose) (HPC)
  T/C: 98 % of control
dose: 2.5 mg/kg/injection, vehicle: saline with Tween-80
  T/C: 92 % of control
dose: 5.0 mg/kg/injection, vehicle: Klucel (hydroxypropylcellulose) (HPC)
  T/C: 90 % of control
dose: 10.0 mg/kg/injection, vehicle: Klucel (hydroxypropylcellulose) (HPC)
  T/C: 86 % of control

## Nc1cccc2c1nc(NCCO)c1ccccc12
[1]
  T/C: 94 % of control
[2]
  T/C: 102 % of control
[3]
  T/C: 94 % of control
[4]
  T/C: 102 % of control

## C=C1CCN(c2ccc(C)cc2)C1=O
dose: 4.0 mg/kg/injection, vehicle: saline + alcohol
  T/C: 91 % of control
dose: 8.0 mg/kg/injection, vehicle: saline + alcohol
  T/C: 88 % of control
dose: 16.0 mg/kg/injection, vehicle: saline + alcohol
  T/C: 94 % of control
dose: 32.0 mg/kg/injection, vehicle: saline + alcohol
  T/C: 89 % of control
dose: 64.0 mg/kg/injection, vehicle: saline + alcohol
  T/C: 104 % of control

## COc1cc2c(cc1OC)/C(=N/N)CCC2
dose: 6.25 mg/kg/injection, vehicle: water
  T/C: 99 % of control
dose: 12.5 mg/kg/injection, vehicle: water
  T/C: 92 % of control
dose: 25.0 mg/kg/injection, vehicle: water
  T/C: 93 % of control
dose: 50.0 mg/kg/injection, vehicle: water
  T/C: 97 % of control

## COC12C(COC(N)=O)C3=C(C(=O)C(C)=C(N)C3=O)N1CC1C2N1C (configuration not stated)
dose: 0.25 mg/kg/injection, vehicle: saline
  T/C: 120 % of control
dose: 0.5 mg/kg/injection, vehicle: saline
  T/C: 123 % of control
[5]
  T/C: 114 % of control
dose: 2.0 mg/kg/injection, vehicle: Klucel (hydroxypropylcellulose) (HPC)
  T/C: 106 % of control
dose: 4.0 mg/kg/injection, vehicle: Klucel (hydroxypropylcellulose) (HPC)
  T/C: 124 % of control

## O=C(N[C@H](CO)[C@H](O)c1ccc([N+](=O)[O-])cc1)C(Cl)Cl
[1]
  T/C: 100 % of control
[2]
  T/C: 99 % of control
[3]
  T/C: 88 % of control
[4]
  T/C: 88 % of control
dose: 800.0 mg/kg/injection, vehicle: saline with Tween-80
  T/C: 87 % of control

## COc1cccc(/C=N/NC(=O)c2ccccc2N2CCCC2)c1O
dose: 12.5 mg/kg/injection, vehicle: olive oil, sesame oil, peanut oil
  T/C: 89 % of control
dose: 50.0 mg/kg/injection, vehicle: olive oil, sesame oil, peanut oil
  T/C: 89 % of control
dose: 100.0 mg/kg/injection, vehicle: olive oil, sesame oil, peanut oil
  T/C: 87 % of control
dose: 200.0 mg/kg/injection, vehicle: olive oil, sesame oil, peanut oil
  T/C: 86 % of control
dose: 400.0 mg/kg/injection, vehicle: olive oil, sesame oil, peanut oil
  T/C: 96 % of control

## CCCCCC(O)C1C(=O)OC(C)C(O)/C=C/C=C/C=C/C=C/C=C(\C)C(O)C(O)C(O)CC(O)CC(O)CC(O)CC(O)CC1O (configuration not stated)
dose: 0.78 mg/kg/injection, vehicle: saline
  T/C: 124 % of control
[5]
  T/C: 116 % of control
dose: 1.56 mg/kg/injection, vehicle: saline
  T/C: 119 % of control
dose: 1.78 mg/kg/injection, vehicle: saline
  T/C: 122 % of control
dose: 2.0 mg/kg/injection, vehicle: saline
  T/C: 123 % of control
dose: 3.12 mg/kg/injection, vehicle: saline
  T/C: 103 % of control
dose: 4.0 mg/kg/injection, vehicle: saline
  T/C: 154 % of control

## O=C(Nc1ccccc1F)Nc1cccc2ccccc12
dose: 100.0 mg/kg/injection, vehicle: Klucel (hydroxypropylcellulose) (HPC)
  T/C: 100 % of control
dose: 200.0 mg/kg/injection, vehicle: Klucel (hydroxypropylcellulose) (HPC)
  T/C: 88 % of control
dose: 400.0 mg/kg/injection, vehicle: Klucel (hydroxypropylcellulose) (HPC)
  T/C: 94 % of control
